We go through eight compounds from publication PMC3254236 (Bioorganic & Medicinal Chemistry, 2011).

pEC50: −log10 of the molar value.

The target in this experiment is T1, full length murine FXR (Mus musculus, UniProt Q60641).
T1 sequence (Q60641 1-488): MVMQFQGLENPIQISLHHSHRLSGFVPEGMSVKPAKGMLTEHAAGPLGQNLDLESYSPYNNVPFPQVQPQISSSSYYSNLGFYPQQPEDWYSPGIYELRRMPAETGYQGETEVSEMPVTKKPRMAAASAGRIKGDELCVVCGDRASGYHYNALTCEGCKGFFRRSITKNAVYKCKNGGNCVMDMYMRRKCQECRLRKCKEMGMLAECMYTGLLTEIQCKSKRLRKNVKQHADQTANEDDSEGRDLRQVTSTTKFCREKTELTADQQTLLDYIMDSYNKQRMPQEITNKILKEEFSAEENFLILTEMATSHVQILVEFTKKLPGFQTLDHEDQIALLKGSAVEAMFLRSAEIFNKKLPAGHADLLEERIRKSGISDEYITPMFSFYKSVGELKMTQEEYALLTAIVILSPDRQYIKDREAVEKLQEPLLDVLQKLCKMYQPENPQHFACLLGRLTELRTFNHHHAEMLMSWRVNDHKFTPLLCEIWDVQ
T1 sequence (P28700 1-467 partner): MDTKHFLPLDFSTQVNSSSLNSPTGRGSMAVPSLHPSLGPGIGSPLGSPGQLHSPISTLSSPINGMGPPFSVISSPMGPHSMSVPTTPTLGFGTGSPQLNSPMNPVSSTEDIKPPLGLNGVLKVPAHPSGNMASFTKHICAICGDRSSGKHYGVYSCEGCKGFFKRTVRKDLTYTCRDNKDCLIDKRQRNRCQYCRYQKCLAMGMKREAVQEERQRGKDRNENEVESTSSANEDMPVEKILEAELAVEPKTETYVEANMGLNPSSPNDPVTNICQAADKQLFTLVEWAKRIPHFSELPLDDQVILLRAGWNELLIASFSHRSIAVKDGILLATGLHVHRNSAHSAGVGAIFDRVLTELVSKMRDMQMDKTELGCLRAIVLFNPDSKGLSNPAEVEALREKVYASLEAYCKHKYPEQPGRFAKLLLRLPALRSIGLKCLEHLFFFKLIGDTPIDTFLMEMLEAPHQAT
The experiment in a line: Reporter gene assay for FXR activation. The class given is cell-based. The conditions noted are these: for Induction of FXR-dependent transcription: Ganoderma constituents 10 μM, normalized to CDCA 25 μM; for FXR induction (percent of CDCA): pure compounds 10 μg/mL, compared with CDCA 25 μM. On the technique in general: A reporter such as luciferase makes a cellular process visible.

`CC(C)[C@@H](C)/C=C/[C@@H](C)[C@H]1CC[C@@H]2[C@]1(C)CC[C@H]1[C@]23C=C[C@]2(C[C@@H](O)CC[C@]12C)OO3` [Compound 2, ergosterol peroxide]: the “Induction of FXR-dependent transcription” value is given as “reached statistical significance”.

For `C[C@H](CC[C@H](O)C(C)(C)O)[C@H]1CC[C@@]2(C)C3=C(CC[C@]12C)[C@@]1(C)CCC(=O)C(C)(C)[C@@H]1CC3=O` [Compound 11, lucidumol A], the “Induction of FXR-dependent transcription” value is recorded as “reached statistical significance”.

With `C[C@H](CC[C@H](O)[C@](C)(O)CO)[C@H]1CC[C@@]2(C)C3=CC[C@H]4C(C)(C)C(=O)CC[C@]4(C)C3=CC[C@]12C` [Compound 13, ganodermanontriol], the “Induction of FXR-dependent transcription” value is listed as “reached statistical significance”.

For the compound `C[C@H](CCC=C(CO)CO)[C@H]1CC[C@@]2(C)C3=CC[C@H]4C(C)(C)C(=O)CC[C@]4(C)C3=CC[C@]12C` [Compound 14, ganoderiol F], the “Induction of FXR-dependent transcription” value is “reached statistical significance”.

As to `COc1ccc(-c2oc3cc(OC)c(OC)c(O)c3c(=O)c2OC)cc1OC` [artemisetin], the “FXR induction (percent of CDCA)” value is “activated FXR significantly, but at lower extent than CDCA”.

Turning to `COc1cc(CNC(=O)CCCCCCC(C)C)ccc1O` [dihydrocapsaicin], the “FXR induction (percent of CDCA)” value is on record as “No activation”.

As for `C=CC(C)(C)c1cc2cc3c(cc2oc1=O)OC(C(C)(C)OC(C)=O)C3` (stereo not drawn) [rutamarin], the “FXR induction (percent of CDCA)” value is recorded as “activated FXR significantly, but at lower extent than CDCA”.

A word on the pEC50: it is the negative decadic logarithm of the EC50, by convention in mol/L. Regarding ganoderic acid TR [Compound 12], the “Induction of FXR-dependent transcription” value was “reached statistical significance”. For the same compound, the pEC50 (dose-dependent FXR reporter activation, test concentrations 0.1-50 μM) is less than 4.85.
